What is called IC50 is the point on the concentration scale where inhibition reaches its midpoint.

Structures are written as SMILES.

In this assay the target is T1, human PAD4 (Homo sapiens, UniProt Q9UM07).
T1 construct: human PAD4 (NM_012387), A2P663, was PCR amplified; His-SUMO (N, cleaved yes); made in house; host or cells: E. coli BL21(DE3)
T1 sequence (Q9UM07 2-663): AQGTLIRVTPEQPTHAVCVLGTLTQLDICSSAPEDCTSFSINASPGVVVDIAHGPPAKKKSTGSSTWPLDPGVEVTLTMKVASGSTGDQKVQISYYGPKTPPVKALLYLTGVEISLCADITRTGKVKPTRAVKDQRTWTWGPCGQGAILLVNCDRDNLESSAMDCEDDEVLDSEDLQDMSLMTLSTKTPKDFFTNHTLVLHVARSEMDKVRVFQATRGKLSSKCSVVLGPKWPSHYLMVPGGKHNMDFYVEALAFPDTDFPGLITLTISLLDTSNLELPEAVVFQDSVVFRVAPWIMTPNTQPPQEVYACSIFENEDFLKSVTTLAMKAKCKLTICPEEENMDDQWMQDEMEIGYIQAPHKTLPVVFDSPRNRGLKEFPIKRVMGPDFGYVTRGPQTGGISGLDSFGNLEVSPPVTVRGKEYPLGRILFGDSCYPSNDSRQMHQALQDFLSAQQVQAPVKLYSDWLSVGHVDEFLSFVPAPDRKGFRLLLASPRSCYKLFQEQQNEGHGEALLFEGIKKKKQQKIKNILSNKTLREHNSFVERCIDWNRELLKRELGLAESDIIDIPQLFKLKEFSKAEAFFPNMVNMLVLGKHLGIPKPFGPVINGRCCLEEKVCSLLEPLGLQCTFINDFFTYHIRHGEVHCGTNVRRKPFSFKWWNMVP
The experiment in a line: In vitro PAD4 BAEE biochemical assay. Particulars: human PAD4, BAEE substrate; 5 nM PAD4, 2 mM calcium chloride, 3 mM BAEE; geometric mean of multiple experiments. An outline of the steps: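 Tag-free recombinant hPAD4 (5 nM), 2 mM CaCl2, 3 mM BAEE, 50 mM MOPS pH 7.6, 2 mM DTT; 30 min compound preincubation, 2 h reaction, all 25 °C. EDTA quench; ammonia read via o-phthalaldehyde amine coupling, 1 h.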
Take `COc1cc(C(=O)N2[C@H]3CC[C@@H]2[C@H](N)C3)cc2nc(-c3cc4ccc([C@@H](C)NC(=O)C5(C)CC(F)(F)C5)nc4n3CC3CC3)c(C)n12` [Example 84, ~{N}-[(1~{R})-1-[2-[7-[(1~{R},2~{R},4~{S})-2-amino-7-azabicyclo[2.2.1]heptane-7-carbonyl]-5-methoxy-3-methylimidazo [1,2-a]pyridin-2-yl]-1-(cyclopropylmethyl)pyrrolo [2,3-b]pyridin-6-yl]ethyl]-3,3-difluoro-1-methylcyclobutane-1-carboxamide]: the IC50 came to 59.7 nM.

Regarding `COc1cc(C(=O)N2CC[C@H]3CCN[C@H]3C2)cc2nc(-c3cc4ccc(N(C(F)F)S(C)(=O)=O)nc4n3CC3CC3)c(C)n12` [Example 325], the IC50 was 154 nM.

Regarding `CC[C@H]1CCCS(=O)(=O)N1c1ccc2cc(-c3nc4cc(C(=O)N5[C@H]6CC[C@@H]5[C@H](N)C6)cc(OC)n4c3C)n(CC3CC3)c2n1` [Example 446, [(1~{R},2~{R},4~{S})-2-amino-7-azabicyclo [2.2.1]heptan-7-yl]-[2-[1-(cyclopropylmethyl)-6-[(3~{S})-3-ethyl-1,1-dioxothiazinan-2-yl]pyrrolo[2,3-b]pyridin-2-yl]-5-methoxy-3-methylimidazo[1,2-a]pyridin-7-yl]methanone], the IC50 is 73.3 nM.

With `COc1cc(C(=O)NC2C3CCCNC32)cc2nc(-c3cc4ccc(N(C(F)F)S(C)(=O)=O)nc4n3CC3CC3)c(C)n12` (stereo not drawn) [Example 339, ~{N}-(2-azabicyclo[4.1.0]heptan-7-yl)-2-[1-(cyclopropylmethyl)-6-[difluoromethyl (methylsulfonyl)amino]pyrrolo[2,3-b]pyridin-2-yl]-5-methoxy-3-methylimidazo[1,2-a]pyridine-7-carboxamide], the 50% inhibitory concentration (IC50) came out at 21500 nM.

For the compound `COc1cc(C(=O)N2[C@H]3CC[C@@H]2[C@H](N)C3)cc2nc(-c3cc4ccc([C@@H](C)NC(=O)NC(C)(C)C)nc4n3CC3CC3)c(C)n12` [Example 244, 1-[(1~{R})-1-[2-[7-[(1~{R},2~{R},4~{S})-2-amino-7-azabicyclo[2.2.1]heptane-7-carbonyl]-5-methoxy-3-methylimidazo [1,2-a]pyridin-2-yl]-1-(cyclopropylmethyl)pyrrolo [2,3-b]pyridin-6-yl]ethyl]-3-~{tert}-butylurea], the IC50 came to 89.6 nM.

As to `COc1cc(C(=O)N2[C@H]3CC[C@@H]2[C@H](N)C3)cc2nc(-c3cc4ccc([C@@H](C)NC(=O)c5ccn(C(F)F)n5)nc4n3CC3CC3)c(C)n12` [Example 81, ~{N}-[(1~{R})-1-[2-[7-[(1~{R},2~{R},4~{S})-2-amino-7-azabicyclo[2.2.1]heptane-7-carbonyl]-5-methoxy-3-methylimidazo [1,2-a]pyridin-2-yl]-1-(cyclopropylmethyl)pyrrolo [2,3-b]pyridin-6-yl]ethyl]-1-(difluoromethyl)pyrazole-3-carboxamide], the IC50 is 112 nM.

On to `CCc1ccc2cc(-c3nc4cc(C(=O)N5C[C@@]6(N)CC[C@@H]5C6)cc(OC)n4c3C)n(CC3CC3)c2n1` [Example 588, [(1~{R},4~{R})-4-amino-2-azabicyclo[2.2.1]heptan-2-yl]-[2-[1-(cyclopropylmethyl)-6-ethylpyrrolo[2,3-b]pyridin-2-yl]-5-methoxy-3-methylimidazo[1,2-a]pyridin-7-yl]methanone], for which the IC50 was 10600 nM.

As to `COc1cc(C(=O)N2[C@H]3CC[C@@H]2[C@H](N)C3)cc2nc(-c3cc4ccc([C@@H](C)N5CCOCC5=O)nc4n3CC3CC3)c(C)n12` [Example 274, 4-[(1~{R})-1-[2-[7-[(1~{R},2~{R},4~{S})-2-amino-7-azabicyclo[2.2.1]heptane-7-carbonyl]-5-methoxy-3-methylimidazo [1,2-a]pyridin-2-yl]-1-(cyclopropylmethyl)pyrrolo [2,3-b]pyridin-6-yl]ethyl]morpholin-3-one], the half-maximal inhibitory concentration (IC50) stood at 252 nM.

Consider `COc1cc(C(=O)N2[C@H]3CC[C@@H]2[C@H](N)C3)cc2nc(-c3cc4ccc([C@@H](C)NC(=O)N5CC(O)(C(F)(F)F)C5)nc4n3CC3CC3)c(C)n12` [Example 197, ~{N}-[(1~{R})-1-[2-[7-[(1~{R},2~{R},4~{S})-2-amino-7-azabicyclo[2.2.1]heptane-7-carbonyl]-5-methoxy-3-methylimidazo [1,2-a]pyridin-2-yl]-1-(cyclopropylmethyl)pyrrolo [2,3-b]pyridin-6-yl]ethyl]-3-hydroxy-3-(trifluoromethyl)azetidine-1-carboxamide], for which the 50% inhibitory concentration (IC50) was found to be 41.3 nM.

On to `COc1cc(C(=O)N2CC[C@@H]3CCNC[C@@H]32)cc2nc(-c3cc4ccc(N(C(F)F)S(C)(=O)=O)nc4n3CC3CC3)c(C)n12` (single isomer, unassigned) [Example 417], for which the IC50 stood at 7180 nM.

Take `COc1cc(C(=O)N2[C@H]3CC[C@@H]2[C@H](N)C3)cc2nc(-c3cc4ccc([C@@H](C)NC(=O)N5CCC5)nc4n3CC3CC3)c(C)n12` [Example 247]: the IC50 stood at 70 nM.

In the case of `CCN(c1ccc2cc(-c3nc4cc(C(=O)N5CCC[C@@H](N)C5)cc(OC)n4c3C)n(CC3CC3)c2n1)S(C)(=O)=O` [Example 484, ~{N}-[2-[7-[(3~{R})-3-aminopiperidine-1-carbonyl]-5-methoxy-3-methylimidazo[1,2-a]pyridin-2-yl]-1-(cyclopropylmethyl)pyrrolo [2,3-b]pyridin-6-yl]-~{N}-ethylmethanesulfonamide], the IC50 was 145 nM.

For `COc1cc(C(=O)N2C[C@@H](F)[C@@H](N)C2)cc2nc(-c3cc4ccc(N(C(F)F)S(C)(=O)=O)nc4n3CC3CC3)c(C)n12` [Example 291, ~{N}-[2-[7-[(3~{S}, 4~{R})-3-amino-4-fluoropyrrolidine-1-carbonyl]-5-methoxy-3-methylimidazo [1,2-a]pyridin-2-yl]-1-(cyclopropylmethyl)pyrrolo [2,3-b]pyridin-6-yl]-~{N}-(difluoromethyl) methanesulfonamide], the IC50 turned out to be 6360 nM.

Regarding `CCCO[C@@H]1CCN(C(=O)c2cc(OC)n3c(C)c(-c4cc5ccc([C@@H](C)NC(=O)c6ccccc6)nc5n4CC4CC4)nc3c2)C[C@@H]1N` [Example 111, ~{N}-[(1~{R})-1-[2-[7-[(3~{S},4~{R})-3-amino-4-propoxypiperidine-1-carbonyl]-5-methoxy-3-methylimidazo[1,2-a]pyridin-2-yl]-1-(cyclopropylmethyl)pyrrolo [2,3-b]pyridin-6-yl]ethyl] benzamide], the half-maximal inhibitory concentration (IC50) was found to be 305 nM.

Turning to `COc1cc(C(=O)N2[C@H]3CC[C@@H]2[C@H](N)C3)cc2nc(-c3cc4ccc([C@@H](C)NC(=O)C5CCOCC5)nc4n3CC3CC3)c(C3CC3)n12` [Example 98], the IC50 was 33.2 nM.

Take `COc1cc(C(=O)N2[C@H]3CC[C@@H]2[C@H](N)C3)cc2nc(-c3cc4ccc(C(C)CC(=O)N5CCCC5)nc4n3CC3CC3)c(C)n12` (stereo partly drawn) [Example 528, 3-[2-[7-[(1~{R},2~{R}, 4~{S})-2-amino-7-azabicyclo[2.2.1]heptane-7-carbonyl]-5-methoxy-3-methylimidazo[1,2-a]pyridin-2-yl]-1-(cyclopropylmethyl)pyrrolo [2,3-b]pyridin-6-yl]-1-pyrrolidin-1-ylbutan-1-one]: the IC50 is 64.3 nM.

In the case of `COc1cc(C(=O)N2CCC3(CCCN3)CC2)cc2nc(-c3cc4ccc(N(C(F)F)S(C)(=O)=O)nc4n3CC3CC3)c(C)n12` [Example 342, ~{N}-[1-(cyclopropylmethyl)-2-[7-(1,8-diazaspiro[4.5]decane-8-carbonyl)-5-methoxy-3-methylimidazo[1,2-a]pyridin-2-yl]pyrrolo[2,3-b]pyridin-6-yl]-~{N}-(difluoromethyl) methanesulfonamide], the IC50 amounted to 14100 nM.

Consider `COc1cc(C(=O)N2[C@H]3CC[C@@H]2[C@H](N)C3)cc2nc(-c3cc4ccc([C@@H](C)NC(=O)C5(C(F)(F)F)CCC5)nc4n3CC3CC3)c(C)n12` [Example 44, ~{N}-[(1~{R})-1-[2-[7-[(1~{R},2~{R},4~{S})-2-amino-7-azabicyclo[2.2.1]heptane-7-carbonyl]-5-methoxy-3-methylimidazo [1,2-a]pyridin-2-yl]-1-(cyclopropylmethyl)pyrrolo[2,3-b]pyridin-6-yl]ethyl]-1-(trifluoromethyl) cyclobutane-1-carboxamide], for which the IC50 was determined as 56.1 nM.

On to `CS(=O)(=O)N(c1ccc2cc(-c3nc4cc(C(=O)N5CC[C@@H](O)[C@@H](N)C5)ccn4c3C3CC3)n(CC3CC3)c2n1)C(F)F` [Example 395, ~{N}-[2-[7-[(3~{S},4~{R})-3-amino-4-hydroxypiperidine-1-carbonyl]-3-cyclopropylimidazo[1,2-a]pyridin-2-yl]-1-(cyclopropylmethyl)pyrrolo [2,3-b]pyridin-6-yl]-~{N}-(difluoromethyl) methanesulfonamide], for which the IC50 was found to be 259 nM.

For `COc1cc(C(=O)N2CCC[C@@H](N)C2)cc2nc(-c3cc4ccc(N(C(F)F)S(=O)(=O)C5CC5)nc4n3CC3CC3)c(C)n12` [Example 413, ~{N}-[2-[7-[(3~{R})-3-aminopiperidine-1-carbonyl]-5-methoxy-3-methylimidazo [1,2-a]pyridin-2-yl]-1-(cyclopropylmethyl)pyrrolo [2,3-b]pyridin-6-yl]-~{N}-(difluoromethyl) cyclopropanesulfonamide], the IC50 stood at 253 nM.

As to `COc1cc(C(=O)N2[C@H]3CC[C@@H]2[C@H](N)C3)cc2nc(-c3cc4ccc([C@@H](C)NC(=O)N5CCCC5)nc4n3CC3CC3)c(C)n12` [Example 251, N—((R)-1-(2-(7-((1R,2R,4S)-2-amino-7-azabicyclo[2.2.1]heptane-7-carbonyl)-5-methoxy-3-methylimidazo[1,2-a]pyridin-2-yl)-1-(cyclopropylmethyl)-1H-pyrrolo[2,3-b]pyridin-6-yl)ethyl)pyrrolidine-1-carboxamide], the IC50 amounted to 50.2 nM.

(Values after patent US12240862B2, “Inhibitors of peptidylarginine deiminases” (Gilead Sciences, Inc., priority 2020, dated 2025).)
